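Five compound concentrations were applied to cells in 96-well plates for 48 hours; endpoints were derived by simple linear interpolation of the resulting dose-response curve. GI50 marks 50% less growth.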 The source made the active and inactive calls. Rule as the data show it: active = GI50 up to about 1.1 µM and inactive = higher.
Key:
Test in all cases: inhibition of tumour cell growth, NCI panel, 48 h
KM12 = test system: KM12
LOX IMVI = test system: LOX IMVI
UACC-257 = test system: UACC-257
SF-268 = test system: SF-268
SW-620 = test system: SW-620
UO-31 = test system: UO-31
RPMI-8226 = test system: RPMI-8226
Hs-578T = test system: Hs-578T
Malme-3M = test system: Malme-3M
U-251 = test system: U-251
786-0 = test system: 786-0
SF-539 = test system: SF-539
MDA-MB-231 = test system: MDA-MB-231
DU-145 = test system: DU-145
MOLT-4 = test system: MOLT-4
SNB-75 = test system: SNB-75
MCF7 = test system: MCF7
SK-MEL-2 = test system: SK-MEL-2
TK-10 = test system: TK-10
PC-3 = test system: PC-3

Measured: GI50

O=C(O)c1cc(N(Cc2ccccc2O)Cc2cc(O)ccc2O)ccc1O [LAVENDUSTIN A]
inactive: KM12 > 100 µM | LOX IMVI 34.9 µM | UACC-257 > 100 µM | SF-268 > 100 µM | SW-620 > 100 µM | UO-31 > 100 µM | RPMI-8226 > 100 µM | Hs-578T 19.8 µM | Malme-3M > 100 µM | U-251 > 100 µM | 786-0 > 100 µM | SF-539 > 100 µM | MDA-MB-231 > 100 µM | DU-145 > 100 µM | MOLT-4 > 100 µM | SNB-75 > 10 µM | MCF7 > 100 µM | SK-MEL-2 > 100 µM | TK-10 > 100 µM | PC-3 42.3 µM
